In the supplement of paper PMC11451515:

Test system: P12-Ichikawa
Test: cell viability relative to DMSO control; higher = less cytotoxic
Settings: 48 h
How it was run: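 Three leukemia lines were tested: NOMO1 and SEM at 500 cells/well and P12-Ichikawa at 1000 cells/well. Each was adapted for at least four passages in each medium and seeded in 5 μl in 1536-well plates, and library compounds in DMSO were pin-dosed from 47 μM to 0.79 nM in 11 threefold steps. After 48 h at 37°C, CellTiter-Glo One luminescence was read. Viability is a percentage relative to DMSO wells on each plate, with cell-free wells as background.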

[1] = HPLM + 10% dialyzed FBS, 0.000781 µM
[2] = HPLM + 10% dialyzed FBS, 0.00234 µM
[3] = HPLM + 10% dialyzed FBS, 0.00702 µM
[4] = HPLM + 10% dialyzed FBS, 0.0211 µM
[5] = HPLM + 10% dialyzed FBS, 0.0632 µM
[6] = HPLM + 10% dialyzed FBS, 0.19 µM
[7] = HPLM + 10% dialyzed FBS, 0.569 µM
[8] = HPLM + 10% dialyzed FBS, 1.71 µM
[9] = HPLM + 10% dialyzed FBS, 5.12 µM
[10] = HPLM + 10% dialyzed FBS, 15.4 µM
[11] = HPLM + 10% dialyzed FBS, 46.1 µM
[12] = RPMI 5 mM glucose + 10% FBS, 0.000781 µM
[13] = RPMI 5 mM glucose + 10% FBS, 0.00234 µM
[14] = RPMI 5 mM glucose + 10% FBS, 0.00702 µM
[15] = RPMI 5 mM glucose + 10% FBS, 0.0211 µM
[16] = RPMI 5 mM glucose + 10% FBS, 0.0632 µM
[17] = RPMI 5 mM glucose + 10% FBS, 0.19 µM
[18] = RPMI 5 mM glucose + 10% FBS, 0.569 µM
[19] = RPMI 5 mM glucose + 10% FBS, 1.71 µM
[20] = RPMI 5 mM glucose + 10% FBS, 5.12 µM
[21] = RPMI 5 mM glucose + 10% FBS, 15.4 µM
[22] = RPMI 5 mM glucose + 10% FBS, 46.1 µM
[23] = RPMI 5 mM glucose + 10% dialyzed FBS, 0.000781 µM
[24] = RPMI 5 mM glucose + 10% dialyzed FBS, 0.00234 µM
[25] = RPMI 5 mM glucose + 10% dialyzed FBS, 0.00702 µM
[26] = RPMI 5 mM glucose + 10% dialyzed FBS, 0.0211 µM
[27] = RPMI 5 mM glucose + 10% dialyzed FBS, 0.0632 µM
[28] = RPMI 5 mM glucose + 10% dialyzed FBS, 0.19 µM
[29] = RPMI 5 mM glucose + 10% dialyzed FBS, 0.569 µM
[30] = RPMI 5 mM glucose + 10% dialyzed FBS, 1.71 µM
[31] = RPMI 5 mM glucose + 10% dialyzed FBS, 5.12 µM
[32] = RPMI 5 mM glucose + 10% dialyzed FBS, 15.4 µM
[33] = RPMI 5 mM glucose + 10% dialyzed FBS, 46.1 µM

SMILES | cell viability [1] | cell viability [2] | cell viability [3] | cell viability [4] | cell viability [5] | cell viability [6] | cell viability [7] | cell viability [8] | cell viability [9] | cell viability [10] | cell viability [11] | cell viability [12] | cell viability [13] | cell viability [14] | cell viability [15] | cell viability [16] | cell viability [17] | cell viability [18] | cell viability [19] | cell viability [20] | cell viability [21] | cell viability [22] | cell viability [23] | cell viability [24] | cell viability [25] | cell viability [26] | cell viability [27] | cell viability [28] | cell viability [29] | cell viability [30] | cell viability [31] | cell viability [32] | cell viability [33]
OC[C@H]1OCC(O1)[N@@]2C=CC(N)=NC2=O (stereo partly specified) | 121% | 118% | 113% | 121% | 112% | 118% | 117% | 107% | 115% | 108% | 115% | 108% | 125% | 117% | 118% | 118% | 117% | 118% | 107% | 104% | 101% | 103% | 116% | 121% | 115% | 109% | 114% | 113% | 109% | 106% | 105% | 104% | 105%
CC/1=C(/N2[C@H](SC1)[C@H](NC(=O)[C@H](N)\C3=C\C\C=C/C3)C2=O)C(O)=O | 96.8% | 117% | 116% | 121% | 126% | 115% | 111% | 126% | 128% | 120% | 113% | 99.5% | 91.8% | 110% | 116% | 103% | 120% | 117% | 119% | 120% | 124% | 122% | 111% | 112% | 116% | 112% | 118% | 118% | 118% | 117% | 125% | 133% | 125%
Cn1c(CNc2ccc(C(=N)N)cc2)nc2cc(C(=O)N(CCC(=O)O)c3ccccn3)ccc21 | 96.7% | 102% | 107% | 109% | 105% | 114% | 104% | 109% | 117% | 113% | 114% | 100% | 118% | 120% | 118% | 123% | 113% | 122% | 128% | 115% | 110% | 120% | 97.3% | 111% | 112% | 110% | 115% | 110% | 109% | 120% | 112% | 105% | 112%
Cc1cn([C@@H]2O[C@H](CO)[C@@H](O)[C@@H]2F)c(=O)[nH]c1=O | 103% | 112% | 116% | 122% | 116% | 122% | 132% | 124% | 126% | 122% | 123% | 101% | 115% | 116% | 120% | 124% | 127% | 119% | 129% | 130% | 123% | 17.6% | 97% | 110% | 111% | 113% | 121% | 126% | 121% | 123% | 123% | 127% | 64.6%
COc1cc2ncnc(Nc3cc(Br)c(O)c(Br)c3)c2cc1OC | 98.7% | 103% | 106% | 101% | 112% | 110% | 109% | 107% | 106% | 108% | 96.5% | 92.3% | 104% | 107% | 114% | 109% | 113% | 117% | 118% | 99.7% | 106% | 79.4% | 95.8% | 104% | 108% | 109% | 111% | 114% | 114% | 118% | 105% | 109% | 94.9%
NC/1=N/C2=C([NH]C=N2)C(=S)N1 | 113% | 122% | 116% | 123% | 123% | 121% | 120% | 119% | 98.2% | 94.2% | 28.9% | 119% | 120% | 124% | 116% | 131% | 130% | 116% | 119% | 96% | 88.1% | 21.2% | 105% | 117% | 124% | 122% | 125% | 112% | 118% | 110% | 79% | 59.7% | 11.1%
Cc1cc(C(C)(C)C)c(O)c(C)c1CC1=NCCN1 | 96.4% | 98.3% | 105% | 98.3% | 100% | 104% | 110% | 96.6% | 97.5% | 71.1% | 69.5% | 92.6% | 98.5% | 98.5% | 106% | 99.2% | 96.6% | 99.1% | 93.8% | 103% | 63.7% | 60.5% | 89.8% | 89% | 94.4% | 95.5% | 94.5% | 104% | 97.9% | 105% | 98.7% | 53.8% | 48.9%
COc1cc2ncnc(Nc3ccc(F)c(Cl)c3)c2cc1NC(=O)/C=C/CN1CCCCC1 | 109% | 108% | 103% | 106% | 107% | 97.6% | 106% | 90.1% | 85.4% | 79.1% | 67.9% | 106% | 106% | 103% | 101% | 102% | 106% | 102% | 92.6% | 85.7% | 82.9% | 75.2% | 101% | 109% | 94.5% | 109% | 105% | 102% | 104% | 88.4% | 80.9% | 76% | 67.8%
COc1ccc(-c2nc(N3CCOCC3)c3sc(CN(C)c4ncc(C(=O)NO)cn4)cc3n2)cn1 | 109% | 121% | 101% | 62.6% | 6.62% | 7.21% | 7.09% | 6.69% | 6.67% | 6.8% | 7.92% | 102% | 127% | 111% | 57.6% | 7.68% | 7.7% | 7.72% | 6.89% | 7.19% | 7.05% | 5.24% | 107% | 119% | 108% | 74.2% | 10.5% | 8.35% | 8.38% | 8.07% | 7.55% | 6.64% | 5.83%
CCC(C)(Oc1ccc(C2(c3ccc(OC(C)(CC)C(=O)O)cc3)CCCCC2)cc1)C(=O)O (stereo unspecified) | 109% | 106% | 103% | 110% | 99.2% | 103% | 103% | 106% | 107% | 94% | 98.4% | 90.9% | 95.6% | 97% | 93.2% | 97.8% | 97.2% | 97.6% | 101% | 100% | 92.1% | 94.1% | 87.5% | 95.5% | 89% | 86.6% | 96.8% | 92% | 82.1% | 91% | 89.1% | 86.7% | 85.3%
C=C(C)[C@H]1Cc2c(ccc3c2O[C@@H]2COc4cc(OC)c(OC)cc4[C@@H]2C3=O)O1 | 101% | 108% | 107% | 111% | 95.9% | 118% | 90.6% | 76.5% | 56.1% | 19.7% | 17.7% | 108% | 113% | 104% | 106% | 88.2% | 99.5% | 73.6% | 60.3% | 44.3% | 17.3% | 10.1% | 98.6% | 106% | 110% | 107% | 102% | 95.7% | 76.6% | 69.3% | 59.9% | 34% | 24.1%
CC(C)C[C@H](NC(=O)[C@H](CCc1ccccc1)NC(=O)CN1CCOCC1)C(=O)N[C@@H](Cc1ccccc1)C(=O)N[C@@H](CC(C)C)C(=O)[C@@]1(C)CO1 | 86.2% | 96.7% | 95.1% | 86.1% | 5.6% | 5.9% | 5.35% | 4.68% | 1.59% | -0.411% | -0.285% | 83.1% | 96.3% | 92.7% | 46.1% | 4.86% | 4.74% | 4.53% | 4.03% | 2.11% | -0.0452% | -0.307% | 78.8% | 94.4% | 91.2% | 54.1% | 5.27% | 4.96% | 4.93% | 3.8% | 1.93% | -0.204% | -0.46%
C[S+](=O)([O-])N1CCc2c(-c3cnc(N)nc3)nc(N3CCOCC3)nc21 | 110% | 115% | 110% | 120% | 111% | 119% | 115% | 93.6% | 104% | 107% | 98.5% | 105% | 97.8% | 114% | 106% | 102% | 108% | 103% | 73% | 84.8% | 79.6% | 71.8% | 98.2% | 116% | 110% | 119% | 112% | 115% | 107% | 85.6% | 103% | 85.4% | 78.5%
CN1\C(=C(\O)C2=CC=CC=C2[S+]1([O-])=O)C(=O)NC3=NC=C(C)S3 | 95% | 95.7% | 93.9% | 94.6% | 99.3% | 100% | 98.4% | 98.3% | 101% | 97.5% | 112% | 91.8% | 91.7% | 88% | 86% | 93.8% | 88.8% | 84.8% | 89% | 95.4% | 96.7% | 112% | 79.3% | 92.8% | 83.1% | 91.4% | 96.2% | 87% | 92.7% | 87.8% | 80.8% | 90% | 86.7%
CCOC(=O)\C1=C(/C)N\C2=C(C1C3=CC=C(C=C3)C4=CC=CC=C4)\C(=O)CC(C)(C)C2 (stereo unspecified) | 119% | 112% | 123% | 110% | 119% | 110% | 109% | 107% | 108% | 108% | 103% | 108% | 104% | 117% | 117% | 115% | 99.8% | 109% | 103% | 102% | 95.3% | 113% | 112% | 118% | 116% | 114% | 111% | 101% | 104% | 101% | 107% | 98.9% | 95.3%
C=CC(=O)N1CCC[C@@H](n2nc(-c3ccc(Oc4ccccc4)cc3)c3c(N)ncnc32)C1 | 127% | 123% | 120% | 121% | 114% | 112% | 111% | 91.8% | 80.7% | 76.3% | 80.5% |  |  |  |  |  |  |  |  |  |  |  |  |  |  |  |  |  |  |  |  |  | 
